In assay [1] the test system is transiently transfected TGFβ-responsive reporter. The assay can be described thus: transient transfection luciferase assay, p3TPLux. Format: cell-based, mink. Here is the method: LUCIFERASE ASSAYS: Our transient transfection luciferase assay was described previously by us (Stockwell et al., Chem Biol 5:385, 1998). Briefly, 100,000 Mv1Lu mink lung epithelial cells were transiently transfected in 12-well dishes with 400 ng p3TPLux or pNFkB-Lux, with or without 50 ng pFC-MEKK, in 300 μL minimal essential medium with non-essential amino acids. The DEAE-dextran/chloroquine/DMSO methods was used for transfection (Stockwell et al., Chem Biol 6:71, 1999). After cell lysis in 120 μL lysis buffer, a Beckman LS 6500 liquid scintillation counter was used in single photon mode to quantitate luminescence. For detection of luciferase activity in 6F cells (including the primary screen), 20,000 6F cells were seeded in 50 μL of 10% mink medium in each well of a white 384-well plate (Nalge Nune International; Naperville, Ill.; cat#164610) using a Multidrop 384 liquid dispenser (Lab Systems; Helsinki, Finland). After 16 hours, medium was removed using a 24 channel wand (V&P Scientific, Inc.; San Diego, Calif.; cat#VP 186L), the cells were washed with 75 μL of 0.2% mink medium (containing 0.2% FBS), and reagents were added in 40 μL of 0.2% medium. For the primary screen, reagents were added by pin transfer using 384 polypropylene pin arrays (Matrix Technologies; Hudson, N.H.). After 24 hours, the cells were cooled on ice and washed twice with 75 μL Hanks Balanced Salt Solution (HBSS; GibcoBRL; cat#24020-117). Then 20 μL lysis buffer (25 mM glycylglycine (Sigma; cat#E-0396), 1% Triton X-100 (Sigma; cat#T-9284), 1 mM dithiothreitol (DTT; Sigma; cat#D-5545), 1 mM phenylmethylsulfonyl fluoride (PMSF; Sigma; cat#P-7626)) was added to each well with a Multidrop. After incubating the cells for five minutes on ice, 20 μL of ATP/luciferin solution was added (25 mM glycylglycine pH 7.8, 15 mM MgSO4, 4 mM EGTA, 6.25 mM K2HPO4 (Sigma; cat#P5504) pH 7.8, 5 mM DTT, 75 μM D-luciferin (Sigma, cat# L-9504, 2 mM ATP (Sigma; cat#A-7699)). Light output was immediately measured with an Analyst 384-well platereader (LJL), with 0.5 second counting time per well.

The test system of assay [2] is Mv1Lu mink lung epithelial cells. In words: 384 well anti-BrdU cytoblot. Format: cell-based. To be noted: 384-well plate; TGF-β 16 hours, then 10 μM BrdU 16 hours. From the text:
FIG. 1. An immunodetection assay for DNA synthesis in high density arrays of mammalian cells. (a) Cartoon depiction of an anti-BrdU cytoblot. The thymine analog 5-bromodeoxyuridine (BrdU) is incorporated into the DNA of cells that are actively replicating their DNA. The cells are in the well, and BrdU is detected with a two step antibody binding procedure. The second antibody is conjugated to the enzyme horseradish peroxidase. In the presence of the chemiluminescent substrate luminol as well as hydrogen peroxide, light of wavelength 428 nm is generated. The light emission can be detected by exposing the plate to film. (b) A cytoblot can detect TGF-β's ability to prevent BrdU incorporation in mink lung epithelial cells. 2000 Mv1Lu mink lung epithelial cells were seeded in each well of a white, opaque 384 well plate. The cells were seeded in the indicated concentrations of TGF-β in 50 μL of DMEM with 1% fetal bovine serum (FBS), 100 units/mL penicillin G sodium, 100 μg/mL streptomycin sulfate and 100 μM each of the amino acids alanine, aspartic acid, glutamine, glycine, asparagine and proline (referred to throughout as 1% mink medium) and allowed to incubate at 37° C. with 5% CO2. After 16 hours, 5.5 μL of 100 μM BrdU in 1% mink medium was added to each well, for a final concentration of 10 μM BrdU. The cells were incubated at 37° C. with 5% CO2 for an additional 16 hours and then an anti-BrdU cytoblot protocol was performed (see protocol). Wells shown are magnified 4×.
FIG. 2. A cytoblot can detect the ability of numerous antiproliferative agents to inhibit BrdU incorporation. 2000 Mv1Lu mink lung epithelial cells were seeded in each well of a white, opaque 384 well plate. The cells were seeded in 40 μL of 1% mink media and immediately 40 μL of 2× stocks of the reagents shown was added to each well and the cells were allowed to incubate at 37° C. with 5% CO2. After 24 hours, 9 μL of 100 μM BrdU in 1% mink medium was added to each well, for a final concentration of 10 μM BrdU. The cells were incubated at 37° C. with 5% CO2 for an additional 16 hours and then an anti-BrdU cytoblot protocol was performed (see protocol). Wells shown are magnified 2.5×.
The ability of the cytoblot assay to detect changes in DNA synthesis was tested by measuring the incorporation of 5-bromodeoxyuridine (BrdU, Sigma Corporation, St. Louis, Mo., Cat.# B9285) into DNA in the presence or absence of the anti-mitogen transforming growth factor β (TGF-β). Mink lung cells, which are responsive to TGF-β, were seeded into each well of an opaque, white 384-well plate. The cells were subsequently treated with varying concentrations of TGF-β for 16 hours and then with 10 μM BrdU for 16 hours. […] The following protocols provide experimental detail. […]

Take “TGF-β: anti-mitogen transforming growth factor β, multifunctional polypeptide signaling factor”: the “activation of transiently versus stably transfected TGFβ-responsive reporter” value in assay [1] is “equally effective”. Also, in assay [2], the BrdU incorporation result was “effectively prevented BrdU incorporation”.

The values are drawn from US20080311589A1, “METHOD OF HIGH-THROUGHPUT SCREENING OF MOLECULES AND COMPOUNDS FOR THEIR EFFECTS ON BIOLOGICAL AND CHEMICAL PROCESSES” (priority 1999, published 2008).
